Source: US7425551B2, “Malonamide derivatives” (Hoffmann-La Roche Inc., priority 2006, dated 2008)

molecular target: T1, γ-secretase (Homo sapiens, UniProt P49768); assay: in vitro assay of γ-secretase activity (HEK293 membrane fraction, recombinant APP substrate, Abeta ELISA); format: biochemical; details: γ-secretase inhibition; HEK293 membrane fraction solubilized in 0.25% CHAPSO, recombinant human APP C-terminal 100 amino acids substrate, Abeta detected by ELISA
T1 construct: uses a HEK293 membrane fraction as a source of γ-secretase; endogenous in cells; host or cells: HEK293 (microsomal membrane fraction, solubilised in 0.25% CHAPSO)
From the text: Description of 1γ-Secretase Assay The activity of test compounds can be evaluated in assays which measure the proteolytic cleavage of suitable substrates by γ-secretase activity. These can be cellular assays where e.g., a substrate of the γ-secretase is fused in its cytoplasmic domain to a transcription factor. Cells are transfected with this fusion gene and a reporter gene, e.g., firefly luciferase, which expression is enhanced by the transcription factor. Cleavage of the fused substrate by γ-secretase will lead to expression of the reporter gene which can be monitored in appropriate assays. The γ-secretase activity can also be determined in cell-free in vitro assays where e.g., a cell lysate containing the γ-secretase complex is incubated with a suitable APP-derived substrate which is cleaved to the Abeta peptides. The amount of produced peptides can be determined with specific ELISA assays. Cell lines of neuronal origin secrete Abeta peptides which can be measured with the specific ELISA assay. Treatment with compounds which inhibit γ-secretase leads to a reduction of secreted Abeta thus providing a measure of inhibition. The in vitro assay of γ-secretase activity uses a HEK293 membrane fraction as a source of γ-secretase and a recombinant APP substrate. Latter consist of the C-terminal 100 amino acids of human APP fused to a 6× Histidin tail for purification which is expressed in E. coli in a regulatable expression vector, e.g. pEt15. This recombinant protein corresponds to the truncated APP fragment which results after […] of the extracellular domain and which constitutes the γ-secretase substrate. The assay principle is described in Li Y M et al, PNAS 97(11), 6138-6143 (2000). Hek293 cells are mechanically disrupted and the microsomal fraction is isolated by differential centrifugation. The membranes are solubilized in detergent (0.25% CHAPSO) and incubated with the APP substrate. The Abeta peptides which are produced by γ-secretase cleavage of the substrate are detected by specific ELISA assays as described (Brockhaus M et al, Neuroreport 9(7), 1481-1486 (1998).

Row | IC50 | SMILES
1 | 10 nM | CC(O)(C(=O)NCC(F)(F)C(F)(F)F)C(=O)N[C@@H]1C(=O)N(CCOCc2ccccc2)c2ccccc2-c2ccccc21 (stereo partly drawn) [Example 12, N—[(S)-5-(2-Benzyloxy-ethyl)-6-oxo-6,7-dihydro-5H-dibenzo[b,d]azepin-7-yl]-2-hydroxy-2-methyl-N′-(2,2,3,3,3-pentafluoro-propyl)-malonamide]
2 | 480 nM | C[C@H](OC(=O)NCCF)C(=O)N[C@@H]1C(=O)N(CCOCc2ccccc2)c2ccccc2-c2ccccc21 [Example 41, (2-Fluoro-ethyl)-carbamic acid (S)-1-[(S)-5-(2-benzyloxy-ethyl)-6-oxo-6,7-dihydro-5H-dibenzo[b,d]azepin-7-ylcarbamoyl]-ethyl ester]
3 | 1 nM | CC(O)(C(=O)NCCC(F)(F)C(F)(F)F)C(=O)N[C@@H]1C(=O)N(CCO)c2ccccc2-c2ccccc21 (single isomer, unassigned; epimer b) [Example 62, (S or R)-2-Hydroxy-N—[(S)-5-(2-hydroxy-ethyl)-6-oxo-6,7-dihydro-5H-dibenzo[b,d]azepin-7-yl]-2-methyl-N′-(3,3,4,4,4-pentafluoro-butyl)-malonamide, epimer B]
4 | 75 nM | O=C(CC(=O)N[C@@H]1C(=O)N(CCO)c2ccccc2-c2ccccc21)NCCC(F)(F)F [Example 30, N—[(S)-5-(2-Hydroxy-ethyl)-6-oxo-6,7-dihydro-5H-dibenzo[b,d]azepin-7-yl]-N′-(3,3,3-trifluoro-propyl)-malonamide]
5 | 2 nM | CC(O)(C(=O)NCCC(F)(F)F)C(=O)N[C@@H]1C(=O)N(CCOCc2ccccc2)c2ccccc2-c2ccccc21 (stereo partly drawn) [Example 63, N—[(S)-5-(2-Benzyloxy-ethyl)-6-oxo-6,7-dihydro-5H-dibenzo[b,d]azepin-7-yl]-2-hydroxy-2-methyl-N′-(3,3,3-trifluoro-propyl)-malonamide]
6 | 9 nM | COCCN1C(=O)[C@@H](NC(=O)C(C)(O)C(=O)NCC(F)(F)C(F)(F)F)c2ccccc2-c2ccccc21 (single isomer, unassigned; epimer a) [Example 45]
7 | 16 nM | C[C@](F)(C(=O)NCC(F)(F)C(F)(F)F)C(=O)N[C@@H]1C(=O)N(CCOCc2ccccc2)c2ccccc2-c2ccccc21 [Example 23, (S)—N—[(S)-5-(2-Benzyloxy-ethyl)-6-oxo-6,7-dihydro-5H-dibenzo[b,d]azepin-7-yl]-2-fluoro-2-methyl-N′-(2,2,3,3,3-pentafluoro-propyl)-malonamide]
8 | 8 nM | C[C@@](F)(C(=O)NCCC(F)(F)F)C(=O)N[C@@H]1C(=O)N(CCO)c2ccccc2-c2ccccc21 [Example 54, (R)-2-Fluoro-N—[(S)-5-(2-hydroxy-ethyl)-6-oxo-6,7-dihydro-5H-dibenzo[b,d]azepin-7-yl]-2-methyl-N-(3,3,3-trifluoro-propyl)-malonamide]
9 | 3 nM | CC(O)(C(=O)NCC(F)(F)C(F)(F)F)C(=O)N[C@@H]1C(=O)N(CCO)c2ccccc2-c2ccccc21 (single isomer, unassigned; epimer a) [Example 20]
10 | 4 nM | C[C@](O)(C(=O)NCC(F)(F)F)C(=O)N[C@@H]1C(=O)N(CCO)c2ccccc2-c2ccccc21 [Example 60, (S)-2-Hydroxy-N—[(S)-5-(2-hydroxy-ethyl)-6-oxo-6,7-dihydro-5H-dibenzo[b,d]azepin-7-yl]-2-methyl-N′-(2,2,2-trifluoro-ethyl)-malonamide]
11 | 5 nM | C[C@@](F)(C(=O)NCCC(F)(F)C(F)(F)F)C(=O)N[C@@H]1C(=O)N(CCOCc2ccccc2)c2ccccc2-c2ccccc21 [Example 40, (R)—N—[(S)-5-(2-Benzyloxy-ethyl)-6-oxo-6,7-dihydro-5H-dibenzo[b,d]azepin-7-yl]-2-fluoro-2-methyl-N′-(3,3,4,4,4-pentafluoro-butyl)-malonamide]
12 | 9 nM | C[C@](F)(C(=O)NCCC(F)(F)C(F)(F)F)C(=O)N[C@@H]1C(=O)N(CCOCc2ccccc2)c2ccccc2-c2ccccc21 [Example 44, (S)—N—[(S)-5-(2-Benzyloxy-ethyl)-6-oxo-6,7-dihydro-5H-dibenzo[b,d]azepin-7-yl]-2-fluoro-2-methyl-N′-(3,3,4,4,4-pentafluoro-butyl)-malonamide]
13 | 14 nM | C[C@H](OC(=O)NCC(F)(F)F)C(=O)N[C@@H]1C(=O)N(CCO)c2ccccc2-c2ccccc21 [Example 48, (2,2,2-Trifluoro-ethyl)-carbamic acid (S)-1-[(S)-5-(2-hydroxy-ethyl)-6-oxo-6,7-dihydro-5H-dibenzo[b,d]azepin-7-ylcarbamoyl]-ethyl ester]
14 | 2 nM | CC(O)(C(=O)NCCC(F)(F)C(F)(F)F)C(=O)N[C@@H]1C(=O)N(CCO)c2ccccc2-c2ccccc21 (stereo partly drawn) [Example 56, 2-Hydroxy-N—[(S)-5-(2-hydroxy-ethyl)-6-oxo-6,7-dihydro-5H-dibenzo[b,d]azepin-7-yl]-2-methyl-N′-(3,3,4,4,4-pentafluoro-butyl)-malonamide]
15 | 2 nM | C[C@@](F)(C(=O)NCC(F)(F)C(F)(F)F)C(=O)N[C@@H]1C(=O)N(CCOCc2ccccc2)c2ccccc2-c2ccccc21 [Example 22, (R)—N—[(S)-5-(2-Benzyloxy-ethyl)-6-oxo-6,7-dihydro-5H-dibenzo[b,d]azepin-7-yl]-2-fluoro-2-methyl-N′-(2,2,3,3,3-pentafluoro-propyl)-malonamide]
16 | 34 nM | COCCN1C(=O)[C@@H](NC(=O)CC(=O)NCC(F)(F)C(F)(F)F)c2ccccc2-c2ccccc21 [Example 24, N—[(S)-5-(2-Methoxy-ethyl)-6-oxo-6,7-dihydro-5H-dibenzo[b,d]azepin-7-yl]-N′-(2,2,3,3,3-pentafluoro-propyl)-malonamide]
17 | 6 nM | CC(C)(C(=O)NCC(F)(F)C(F)(F)F)C(=O)N[C@@H]1C(=O)N(CCOc2ccc(F)cc2)c2ccccc2-c2ccccc21 [Example 69, N-{(S)-5-[2-(4-Fluoro-phenoxy)-ethyl]-6-oxo-6,7-dihydro-5H-dibenzo[b,d]azepin-7-yl}-2,2-dimethyl-N′-(2,2,3,3,3-pentafluoro-propyl)-malonamide]
18 | 10 nM | C[C@@](F)(C(=O)NCC(F)(F)F)C(=O)N[C@@H]1C(=O)N(CCOCc2ccccc2)c2ccccc2-c2ccccc21 [Example 52, (R)—N—[(S)-5-(2-Benzyloxy-ethyl)-6-oxo-6,7-dihydro-5H-dibenzo[b,d]azepin-7-yl]-2-fluoro-2-methyl-N′-(2,2,2-trifluoro-ethyl)-malonamide]
19 | 1 nM | C[C@@](F)(C(=O)NCC(F)(F)C(F)(F)F)C(=O)N[C@@H]1C(=O)N(CCO)c2ccccc2-c2ccccc21 [Example 26, (R)-2-Fluoro-N—[(S)-5-(2-hydroxy-ethyl)-6-oxo-6,7-dihydro-5H-dibenzo[b,d]azepin-7-yl]-2-methyl-N′-(2,2,3,3,3-pentafluoro-propyl)-malonamide]
20 | 9 nM | C[C@@](F)(C(=O)NCC(F)(F)F)C(=O)N[C@@H]1C(=O)N(CCO)c2ccccc2-c2ccccc21 [Example 53, (R)-2-Fluoro-N—[(S)-5-(2-hydroxy-ethyl)-6-oxo-6,7-dihydro-5H-dibenzo[b,d]azepin-7-yl]-2-methyl-N′-(2,2,2-trifluoro-ethyl)-malonamide]
21 | 49 nM | COC(C(=O)NCC(F)(F)C(F)(F)F)C(=O)N[C@@H]1C(=O)N(CCOCc2ccccc2)c2ccccc2-c2ccccc21 (stereo partly drawn) [Example 10, N—[(S)-5-(2-Benzyloxy-ethyl)-6-oxo-6,7-dihydro-5H-dibenzo[b,d]azepin-7-yl]-2-methoxy-N′-(2,2,3,3,3-pentafluoro-propyl)-malonamide]
22 | 39 nM | CC(O)(C(=O)NCCC(F)(F)F)C(=O)N[C@@H]1C(=O)N(CCO)c2ccccc2-c2ccccc21 (single isomer, unassigned; epimer a) [Example 65, (R or S)-2-Hydroxy-N—[(S)-5-(2-hydroxy-ethyl)-6-oxo-6,7-dihydro-5H-dibenzo[b,d]azepin-7-yl]-2-methyl-N′-(3,3,3-trifluoro-propyl)-malonamide, epimer A]
23 | 2 nM | CC(C)(C(=O)NCC(F)(F)C(F)(F)F)C(=O)N[C@@H]1C(=O)N(CCO)c2ccccc2-c2ccccc21 [Example 6, N—[(S)-5-(2-Hydroxy-ethyl)-6-oxo-6,7-dihydro-5H-dibenzo[b,d]azepin-7-yl]-2,2-dimethyl-N′-(2,2,3,3,3-pentafluoro-propyl)-malonamide]
24 | 22 nM | O=C(CC(=O)N[C@@H]1C(=O)N(CCOCc2ccccc2)c2ccccc2-c2ccccc21)NCC(F)(F)C(F)(F)F [Example 7, N—[(S)-5-(2-Benzyloxy-ethyl)-6-oxo-6,7-dihydro-5H-dibenzo[b,d]azepin-7-yl]-N′-(2,2,3,3,3-pentafluoro-propyl)-malonamide]
